Molecular target: T1, HPK1 (Homo sapiens, UniProt Q92918)
T1 construct: purchased Invitrogen
Assay: HPK1 biochemical enzyme assay (microfluidic mobility shift assay)
Conditions: 1000 uM (1 mM) ATP; Caliper mobility shift; 1.5 nM HPK1; 30 min preincubation; read-out: HPK1 1000UMATP caliper IC50
Description: Example 33. HPK1 Biochemical Enzyme Assay
HPK1 biochemical enzyme assay: HPK1 enzyme inhibition was measured using a microfluidic mobility shift assay. Reactions were performed in a 384-well plate, containing 1.5 nM HPK1 (Invitrogen), in assay buffer (Carna Biosciences; pH 7.4). Test compounds were titrated in ten point curves (top final assay concentration 3 μM), and preincubated with enzyme/substrate mix for 30 min prior to initiation of the reaction by addition of ATP (1 mM final concentration) and substrate (1 μM final concentration; Carna Biosciences) diluted in assay buffer supplemented by MgCl2 (final assay concentration of 5 mM). Following 60 min incubation at RT, the reaction was terminated by addition of 60 μl/well termination buffer (Carna Biosciences) and signal determination using a Caliper EZ Reader (Perkin Elmer, UK).
The compound numbers correspond to the compound numbers in Table 1. Compounds having an activity designated as “A” provided an IC50≤100 nM; compounds having an activity designated as “B” provided an IC50>100 nM and ≤1,000 nM; compounds having an activity designated as “C” provided an IC50>1,000 nM.

T1 sequence (Q92918 whole entry): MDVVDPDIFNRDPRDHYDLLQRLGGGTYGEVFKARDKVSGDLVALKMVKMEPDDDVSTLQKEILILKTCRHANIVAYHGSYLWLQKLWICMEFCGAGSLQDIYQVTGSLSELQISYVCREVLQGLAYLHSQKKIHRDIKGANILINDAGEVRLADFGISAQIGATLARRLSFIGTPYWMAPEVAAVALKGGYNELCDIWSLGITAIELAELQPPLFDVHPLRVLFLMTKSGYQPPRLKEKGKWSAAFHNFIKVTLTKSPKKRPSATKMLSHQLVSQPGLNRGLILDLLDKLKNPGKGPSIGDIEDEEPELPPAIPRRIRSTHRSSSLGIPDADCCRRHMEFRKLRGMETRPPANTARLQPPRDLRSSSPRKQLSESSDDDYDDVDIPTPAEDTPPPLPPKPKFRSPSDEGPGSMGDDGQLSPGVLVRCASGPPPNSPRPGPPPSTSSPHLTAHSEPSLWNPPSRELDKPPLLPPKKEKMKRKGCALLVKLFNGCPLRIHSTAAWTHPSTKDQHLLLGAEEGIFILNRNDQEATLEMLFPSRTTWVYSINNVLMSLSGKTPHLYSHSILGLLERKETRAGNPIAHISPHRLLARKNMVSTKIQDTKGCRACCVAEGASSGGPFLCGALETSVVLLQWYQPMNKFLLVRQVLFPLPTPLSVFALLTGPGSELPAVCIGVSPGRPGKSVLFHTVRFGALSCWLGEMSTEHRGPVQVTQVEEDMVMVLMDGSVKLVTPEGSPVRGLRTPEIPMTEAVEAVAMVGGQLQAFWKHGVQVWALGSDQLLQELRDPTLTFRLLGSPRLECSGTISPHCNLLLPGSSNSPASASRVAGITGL

| IC50 | Structure (SMILES) |
| --- | --- |
| 100 to 1000 nM | CC(C)c1cc(Nc2ccc(S(C)(=O)=O)cn2)c2c(=O)[nH]ccc2n1 [I-23, 2-isopropyl-4-[(5-methyl-sulfonyl-2-pyridyl)amino]-6H-1,6-naphthyridin-5-one] |
| 100 to 1000 nM | O=c1[nH]ccc2nc(-c3c(F)cccc3F)cc(Nc3ccc(S(=O)(=O)N4CCCCC4)cn3)c12 [I-24, 2-(2,6-difluoro-phenyl)-4-[[5-(1-piperidyl-sulfonyl)-2-pyridyl]amino]-6H-1,6-naphthyridin-5-one] |
| 100 to 1000 nM | Cc1c[nH]c(=O)c2c(Nc3ccc(N4CCC(O)CC4)cn3)cc(-c3c(F)cccc3F)nc12 [I-25, 2-(2,6-difluorophenyl)-4-[[5-(4-hydroxy-1-piperidyl)-2-pyridyl]amino]-8-methyl-6H-1,6-naphthyridin-5-one] |
| > 1000 nM | O=c1[nH]ccc2nc(C3CCC3)cc(Nc3ccc(N4CCC(O)CC4)cn3)c12 [I-26, 2-cyclobutyl-4-[[5-(4-hydroxy-1-piperidyl)-2-pyridyl]amino]-6H-1,6-naphthyridin-5-one] |
| 100 to 1000 nM | CC(C)Cc1cc(Nc2ccc(N3CCC(O)CC3)cn2)c2c(=O)[nH]ccc2n1 [I-28, 4-[[5-(4-hydroxy-1-piperidyl)-2-pyridyl]amino]-2-isobutyl-6H-1,6-naphthyridin-5-one] |
| 100 to 1000 nM | CCNC(=O)c1ccc(Nc2cc(C(C)C)nc3cc[nH]c(=O)c23)cc1 [I-29, N-ethyl-4-[(2-isopropyl-5-oxo-6H-1,6-naphthyridin-4-yl)amino] benzamide] |
| 100 to 1000 nM | CS(=O)(=O)Cc1ccc(Nc2cc(-c3c(F)cccc3F)nc3cc[nH]c(=O)c23)nc1 [I-30, 2-(2,6-difluoro-phenyl)-4-[[5-(methyl-sulfonyl-methyl)-2-pyridyl]amino]-6H-1,6-naphthyridin-5-one] |
| 100 to 1000 nM | CC(C)c1cc(Nc2ccc(S(=O)(=O)N3CCCCC3)cn2)c2c(=O)[nH]ccc2n1 [I-31, 2-isopropyl-4-[[5-(1-piperidyl-sulfonyl)-2-pyridyl]amino]-6H-1,6-naphthyridin-5-one] |
| 100 to 1000 nM | CCC(CC)c1cc(Nc2ccc(N3CCC(O)CC3)cn2)c2c(=O)[nH]ccc2n1 [I-32, 2-(1-ethylpropyl)-4-[[5-(4-hydroxy-1-piperidyl)-2-pyridyl]amino]-6H-1,6-naphthyridin-5-one] |
| 100 to 1000 nM | N#Cc1c[nH]c(=O)c2c(Nc3ccc(N4CCC(O)CC4)cn3)cc(-c3c(F)cccc3F)nc12 [I-33, 2-(2,6-difluorophenyl)-4-[[5-(4-hydroxy-1-piperidyl)-2-pyridyl]amino]-5-oxo-6H-1,6-naphthyridine-8-carbonitrile] |
| 100 to 1000 nM | O=c1[nH]ccc2nc(C3CCNCC3)cc(Nc3ccc(N4CCC(O)CC4)cn3)c12 [I-34, 4-[[5-(4-hydroxy-1-piperidyl)-2-pyridyl]amino]-2-(4-piperidyl)-6H-1,6-naphthyridin-5-one] |
| 100 to 1000 nM | O=c1[nH]ccc2nc(C3CC4CCC3C4)cc(Nc3ccc(N4CCC(O)CC4)cn3)c12 (centres unmarked) [I-35, 4-[[5-(4-hydroxy-1-piperidyl)-2-pyridyl]amino]-2-norbornan-2-yl-6H-1,6-naphthyridin-5-one] |
| ≤ 100 nM | O=c1[nH]ccc2nc(C3CCOCC3)cc(Nc3ccc(N4CCC(O)CC4)cn3)c12 [I-36, 4-[[5-(4-hydroxy-1-piperidyl)-2-pyridyl]amino]-2-tetrahydropyran-4-yl-6H-1,6-naphthyridin-5-one] |
| 100 to 1000 nM | CC(O)c1cc(Nc2ccc(N3CCC(O)CC3)cn2)c2c(=O)[nH]ccc2n1 (centres unmarked) [I-37, 2-(1-hydroxyethyl)-4-[[5-(4-hydroxy-1-piperidyl)-2-pyridyl]amino]-6H-1,6-naphthyridin-5-one] |
| ≤ 100 nM | CC(C)(O)c1cc(Nc2ccc(N3CCC(O)CC3)cn2)c2c(=O)[nH]ccc2n1 [I-38, 2-(1-hydroxy-1-methyl-ethyl)-4-[[5-(4-hydroxy-1-piperidyl)-2-pyridyl]amino]-6H-1,6-naphthyridin-5-one] |
| > 1000 nM | O=C(O)c1c[nH]c(=O)c2c(Nc3ccc(N4CCC(O)CC4)cn3)cc(-c3c(F)cccc3F)nc12 [I-39, 2-(2,6-difluorophenyl)-4-[[5-(4-hydroxy-1-piperidyl)-2-pyridyl]amino]-5-oxo-6H-1,6-naphthyridine-8-carboxylic Acid] |
| 100 to 1000 nM | O=c1[nH]ccc2nc(C3CC4CCC3C4)cc(Nc3ccc(N4CCC(O)CC4)cn3)c12 (centres unmarked) [I-40, 4-[[5-(4-hydroxy-1-piperidyl)-2-pyridyl]amino]-2-norbornan-2-yl-6H-1,6-naphthyridin-5-one] |
| 100 to 1000 nM | COc1ccc(F)c(-c2cc(Nc3ccc(N4CCC(O)CC4)cn3)c3c(=O)[nH]ccc3n2)c1 [I-42, 2-(2-fluoro-5-methoxyphenyl)-4-((5-(4-hydroxypiperidin-1-yl)pyridin-2-yl)amino)-1,6-naphthyridin-5(6H)-one] |

| IC50 | Structure (SMILES) |
| --- | --- |
| ≤ 100 nM | O=c1[nH]ccc2nc(-c3cc(C4CC4)ccc3F)cc(Nc3ccc(N4CCC(O)CC4)cn3)c12 [I-43, 2-(5-cyclopropyl-2-fluoro-phenyl)-4-[[5-(4-hydroxy-1-piperidyl)-2-pyridyl]amino]-6H-1,6-naphthyridin-5-one] |
| ≤ 100 nM | O=c1[nH]ccc2nccc(Nc3ccc(N4CCC(O)CC4)cn3)c12 [I-44, 4-[[5-(4-hydroxy-1-piperidyl)-2-pyridyl]amino]-6H-1,6-naphthyridin-5-one] |
| ≤ 100 nM | N#Cc1ccc(F)c(-c2cc(Nc3ccc(N4CCC(O)CC4)cn3)c3c(=O)[nH]ccc3n2)c1 [I-45, 4-fluoro-3-[4-[[5-(4-hydroxy-1-piperidyl)-2-pyridyl]amino]-5-oxo-6H-1,6-naphthyridin-2-yl] benzonitrile] |
| 100 to 1000 nM | CCNC(=O)C(C)(C)c1ccc(Nc2cc(-c3c(F)cccc3F)nc3cc[nH]c(=O)c23)nc1 [I-46, 2-[6-[[2-(2,6-difluoro-phenyl)-5-oxo-6H-1,6-naphthyridin-4-yl]amino]-3-pyridyl]-N-ethyl-2-methyl-propanamide] |
| ≤ 100 nM | CC(=O)c1cc(Nc2ccc(N3CCC(O)CC3)cn2)c2c(=O)[nH]ccc2n1 [I-47, 2-acetyl-4-[[5-(4-hydroxy-1-piperidyl)-2-pyridyl]amino]-6H-1,6-naphthyridin-5-one] |
| 100 to 1000 nM | CC(C)c1ccc(F)c(-c2cc(Nc3ccc(N4CCC(O)CC4)cn3)c3c(=O)[nH]ccc3n2)c1 [I-48, 2-(2-fluoro-5-isopropyl-phenyl)-4-[[5-(4-hydroxy-1-piperidyl)-2-pyridyl]amino]-6H-1,6-naphthyridin-5-one] |
| 100 to 1000 nM | CCc1c[nH]c(=O)c2c(Nc3ccc(N4CCC(O)CC4)cn3)cc(-c3c(F)cccc3F)nc12 [I-49, 2-(2,6-difluorophenyl)-8-ethyl-4-((5-(4-hydroxypiperidin-1-yl)pyridin-2-yl)amino)-1,6-naphthyridin-5(6H)-one] |
| 100 to 1000 nM | O=c1[nH]ccc2nc(N3CCCC(O)C3)cc(Nc3ccc(N4CCC(O)CC4)cn3)c12 (centres unmarked) [I-50, 2-(3-hydroxy-1-piperidyl)-4-[[5-(4-hydroxy-1-piperidyl)-2-pyridyl]amino]-6H-1,6-naphthyridin-5-one] |
| 100 to 1000 nM | NC(=O)c1ccc(F)c(-c2cc(Nc3ccc(N4CCC(O)CC4)cn3)c3c(=O)[nH]ccc3n2)c1 [I-51, 4-fluoro-3-[4-[[5-(4-hydroxy-1-piperidyl)-2-pyridyl]amino]-5-oxo-6H-1,6-naphthyridin-2-yl]benzamide] |
| 100 to 1000 nM | CCN(C)C(=O)C(C)(C)c1ccc(Nc2cc(-c3c(F)cccc3F)nc3cc[nH]c(=O)c23)nc1 [I-52, 2-[6-[[2-(2,6-difluoro-phenyl)-5-oxo-6H-1,6-naphthyridin-4-yl]amino]-3-pyridyl]-N-ethyl-N,2-dimethyl-propanamide] |
| ≤ 100 nM | CCOC(=O)C(C)(C)c1ccc(Nc2cc(-c3c(F)cccc3F)nc3cc[nH]c(=O)c23)nc1 [I-53, ethyl 2-[6-[[2-(2,6-difluoro-phenyl)-5-oxo-6H-1,6-naphthyridin-4-yl]amino]-3-pyridyl]-2-methyl-propanoate] |
| 100 to 1000 nM | CC1(Cc2cc(Nc3ccc(N4CCC(O)CC4)cn3)c3c(=O)[nH]ccc3n2)COC1 [I-54, 4-[[5-(4-hydroxy-1-piperidyl)-2-pyridyl]amino]-2-[(3-methyl-oxetan-3-yl)methyl]-6H-1,6-naphthyridin-5-one] |
| 100 to 1000 nM | COc1cc(F)c(-c2cc(Nc3ccc(N4CCC(O)CC4)cn3)c3c(=O)[nH]ccc3n2)cc1C [I-55, 2-(2-fluoro-4-methoxy-5-methyl-phenyl)-4-[[5-(4-hydroxy-1-piperidyl)-2-pyridyl]amino]-6H-1,6-naphthyridin-5-one] |
| > 1000 nM | O=c1[nH]cc(-c2ccccc2)c2nc(-c3c(F)cccc3F)cc(Nc3ccc(N4CCC(O)CC4)cn3)c12 [I-56] |
| ≤ 100 nM | CC(C)c1cc(Nc2ccc(N3CCN(C)CC3)cn2)c2c(=O)[nH]ccc2n1 [I-57, 2-isopropyl-4-[[5-(4-methyl-piperazin-1-yl)-2-pyridyl]amino]-6H-1,6-naphthyridin-5-one] |
| ≤ 100 nM | O=C(Nc1ccc(-c2cc(Nc3ccc(N4CCC(O)CC4)cn3)c3c(=O)[nH]ccc3n2)c(F)c1)C1CC1 [I-58, N-[3-fluoro-4-[4-[[5-(4-hydroxy-1-piperidyl)-2-pyridyl]amino]-5-oxo-6H-1,6-naphthyridin-2-yl]phenyl] cyclopropane-carboxamide] |
| 100 to 1000 nM | CC(C)c1cc(Nc2ccc(N3CCC(O)CC3)cn2)c2c(=O)[nH]cnc2n1 [I-59, 5-[[5-(4-hydroxy-1-piperidyl)-2-pyridyl]amino]-7-isopropyl-3H-pyrido[2,3-d]pyrimidin-4-one] |

Reference: US12252488B2 (Nimbus Saturn, Inc., priority 2021, dated 2025)
